ChEMBL document CHEMBL1201862, “PubChem BioAssay data set” (2004)
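96-well plates; 48 h exposure; 5 concentrations. Endpoints by linear interpolation between flanking doses. Not reached: highest tested concentration assigned. Abbreviation: GI50, concentration required for 50% inhibition of growth.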 Activity calls are given as the source filed them. No stated cut-off is given here; in the data, active = GI50 up to about 1.1 µM and inactive = higher.

What was measured:
Assay in all cases: NCI-60 cell line screen, 48 h
HOP-62 = test system: HOP-62
CCRF-CEM = test system: CCRF-CEM
OVCAR-8 = test system: OVCAR-8
Hs-578T = test system: Hs-578T
786-0 = test system: 786-0
HOP-92 = test system: HOP-92
EKVX = test system: EKVX
SF-539 = test system: SF-539
SNB-75 = test system: SNB-75
BT-549 = test system: BT-549
HT-29 = test system: HT-29
SF-295 = test system: SF-295
NCI-H522 = test system: NCI-H522
NCI-H23 = test system: NCI-H23
SK-MEL-28 = test system: SK-MEL-28
UACC-257 = test system: UACC-257
SK-MEL-5 = test system: SK-MEL-5
UO-31 = test system: UO-31
A498 = test system: A498

Measured: GI50

COC(=O)CNC(=O)c1cc(C)cc2c1Oc1c(cc(C)cc1C(=O)NCC(=O)OC)S2
inactive: HOP-62 > 100 µM | CCRF-CEM 60.1 µM | OVCAR-8 > 100 µM | Hs-578T 65.6 µM | 786-0 39.4 µM | HOP-92 22.3 µM | EKVX > 100 µM | SF-539 21.3 µM | SNB-75 > 100 µM | BT-549 > 100 µM | HT-29 47.1 µM | SF-295 56.9 µM | NCI-H522 89.7 µM | NCI-H23 58.7 µM | SK-MEL-28 47.8 µM | UACC-257 49.5 µM

CCC(C)C(NC(=O)c1cccc2c(=O)c3ccccc3[nH]c12)C(=O)O (configuration not stated)
inactive: HOP-62 > 100 µM | CCRF-CEM 64 µM | OVCAR-8 > 100 µM | Hs-578T > 100 µM | SK-MEL-5 > 100 µM | 786-0 > 100 µM | HOP-92 94.4 µM | EKVX > 100 µM | UO-31 48.6 µM | A498 > 100 µM | SNB-75 78.7 µM | HT-29 > 100 µM | SF-295 83.4 µM | NCI-H522 > 100 µM | NCI-H23 > 100 µM | SK-MEL-28 > 100 µM

N#C/C(=C\NC(=S)Nc1ccc(S(=O)(=O)Nc2ccccn2)cc1)C(N)=O
inactive: HOP-62 > 100 µM | CCRF-CEM 42.2 µM | OVCAR-8 > 100 µM | Hs-578T > 100 µM | SK-MEL-5 > 100 µM | 786-0 > 100 µM | HOP-92 > 100 µM | EKVX > 100 µM | UO-31 > 100 µM | A498 > 100 µM | SF-539 > 100 µM | SNB-75 61.8 µM | HT-29 > 100 µM | SF-295 > 100 µM | NCI-H522 > 100 µM | NCI-H23 80.2 µM | SK-MEL-28 > 100 µM | UACC-257 > 100 µM

O=c1oc2c(ccc3ccccc32)cc1C1=CSC2=NCCN12
inactive: HOP-62 35.8 µM | CCRF-CEM 30.5 µM | OVCAR-8 54.7 µM | Hs-578T 73.1 µM | SK-MEL-5 46.3 µM | 786-0 38.7 µM | HOP-92 24.4 µM | EKVX 25.5 µM | UO-31 23.3 µM | SF-539 69.7 µM | SNB-75 > 100 µM | BT-549 26.2 µM | HT-29 45.3 µM | SF-295 33 µM | NCI-H522 30.3 µM | NCI-H23 53.8 µM | SK-MEL-28 35.2 µM | UACC-257 56.1 µM

Nc1nc(Cl)cc(NCC2(CO)CCC2)n1
inactive: HOP-62 > 100 µM | CCRF-CEM > 100 µM | OVCAR-8 > 100 µM | Hs-578T > 100 µM | SK-MEL-5 > 100 µM | 786-0 > 100 µM | HOP-92 > 100 µM | EKVX 75.2 µM | UO-31 > 100 µM | SF-539 > 100 µM | SNB-75 > 100 µM | BT-549 > 100 µM | HT-29 > 100 µM | SF-295 > 100 µM | NCI-H522 > 100 µM | NCI-H23 > 100 µM | SK-MEL-28 > 100 µM | UACC-257 > 10 µM

OCCSCCCSCCO
inactive: HOP-62 > 100 µM | CCRF-CEM 36.8 µM | OVCAR-8 > 100 µM | SK-MEL-5 > 100 µM | 786-0 > 100 µM | HOP-92 27.1 µM | EKVX > 100 µM | UO-31 > 100 µM | SF-539 > 100 µM | SNB-75 > 100 µM | BT-549 > 100 µM | HT-29 > 100 µM | SF-295 > 100 µM | NCI-H522 > 100 µM | NCI-H23 > 100 µM | SK-MEL-28 > 100 µM | UACC-257 > 100 µM

COC(=O)C1(C(=O)OC)CC(=O)c2c(OC(=O)c3cccc(OC)c3C#N)ccc(OC(=O)c3cccc(OC)c3C#N)c2C1
inactive: HOP-62 > 100 µM | CCRF-CEM > 100 µM | OVCAR-8 > 100 µM | Hs-578T > 100 µM | SK-MEL-5 > 100 µM | 786-0 > 100 µM | HOP-92 83.8 µM | EKVX > 100 µM | UO-31 59.2 µM | A498 31.3 µM | SF-539 > 100 µM | SNB-75 > 100 µM | HT-29 > 100 µM | SF-295 > 100 µM | NCI-H522 > 100 µM | NCI-H23 > 100 µM | SK-MEL-28 > 100 µM | UACC-257 > 100 µM

NC(=S)NS(=O)(=O)c1ccc(Cl)cc1
inactive: HOP-62 > 100 µM | CCRF-CEM > 100 µM | OVCAR-8 > 100 µM | Hs-578T > 100 µM | SK-MEL-5 > 100 µM | 786-0 > 100 µM | EKVX 83.2 µM | SF-539 > 100 µM | SNB-75 > 100 µM | BT-549 > 100 µM | HT-29 > 100 µM | SF-295 > 100 µM | NCI-H522 > 100 µM | NCI-H23 > 100 µM | SK-MEL-28 > 100 µM | UACC-257 > 100 µM

O=[N+]([O-])c1cccc(-c2ncc3c(n2)-c2ccccc2C3)c1
inactive: CCRF-CEM > 100 µM | OVCAR-8 > 100 µM | Hs-578T 32.9 µM | SK-MEL-5 > 100 µM | 786-0 22.9 µM | HOP-92 > 100 µM | EKVX 94.4 µM | UO-31 > 100 µM | SF-539 > 100 µM | SNB-75 23.1 µM | BT-549 > 100 µM | HT-29 > 100 µM | SF-295 54.3 µM | NCI-H522 24.7 µM | NCI-H23 > 100 µM | SK-MEL-28 > 100 µM | UACC-257 > 100 µM

Cc1ccc(/N=N/C(=O)NNc2ccc(C)c([N+](=O)[O-])c2)cc1[N+](=O)[O-]
inactive: HOP-62 20.8 µM | CCRF-CEM 19.2 µM | OVCAR-8 26.2 µM | SK-MEL-5 22.9 µM | 786-0 28.2 µM | UO-31 15.2 µM | A498 14.7 µM | SNB-75 19.6 µM | BT-549 30.8 µM | HT-29 53.2 µM | NCI-H522 20.6 µM | NCI-H23 30.2 µM | SK-MEL-28 26.1 µM | UACC-257 25.8 µM

Cc1ccc(C)n1-n1c(-c2ccccc2)n[nH]c1=O
inactive: HOP-62 > 100 µM | CCRF-CEM > 100 µM | OVCAR-8 > 100 µM | Hs-578T > 100 µM | SK-MEL-5 > 100 µM | 786-0 > 100 µM | EKVX > 100 µM | UO-31 > 100 µM | A498 > 100 µM | SNB-75 > 100 µM | BT-549 > 100 µM | HT-29 > 100 µM | SF-295 > 100 µM | NCI-H522 > 100 µM | SK-MEL-28 > 100 µM | UACC-257 > 100 µM

CCOC(=O)c1cn(CC)c(=O)n2c1nc1ccccc12
inactive: HOP-62 > 100 µM | CCRF-CEM 28.4 µM | OVCAR-8 38.3 µM | SK-MEL-5 49.8 µM | 786-0 58.5 µM | HOP-92 30.1 µM | EKVX > 100 µM | UO-31 3.48 µM | A498 32.4 µM | SF-539 55.5 µM | SNB-75 > 100 µM | BT-549 56.9 µM | HT-29 36.7 µM | SF-295 > 100 µM | NCI-H23 55.7 µM | SK-MEL-28 > 100 µM | UACC-257 > 100 µM

Cc1cc(C)nc(NS(=O)(=O)c2ccc(NNc3c4ccccc4nc4c(C(=O)Nc5ccc(S(=O)(=O)Nc6cc(C)on6)cc5)cccc34)cc2)n1
inactive: HOP-62 82 µM | CCRF-CEM 23.1 µM | OVCAR-8 35.6 µM | Hs-578T 51.4 µM | SK-MEL-5 31.3 µM | 786-0 51.6 µM | HOP-92 23.7 µM | EKVX 19.2 µM | UO-31 34.7 µM | SF-539 34.9 µM | SNB-75 30.9 µM | BT-549 72.1 µM | HT-29 23.2 µM | SF-295 57.1 µM | NCI-H522 28.2 µM | NCI-H23 46.8 µM | UACC-257 73.6 µM

C/C(=N\Nc1ccc([N+](=O)[O-])cc1[N+](=O)[O-])c1ccc2ccccc2n1
inactive: OVCAR-8 47.3 µM | Hs-578T 25.3 µM | SK-MEL-5 47.1 µM | 786-0 78.3 µM | HOP-92 > 100 µM | EKVX > 100 µM | UO-31 51.4 µM | SF-539 81.8 µM | SNB-75 81.1 µM | BT-549 53.6 µM | HT-29 74.6 µM | SF-295 52.6 µM | NCI-H522 13.7 µM | NCI-H23 > 100 µM | SK-MEL-28 > 100 µM | UACC-257 > 100 µM

C=C/C(C)=C\CC1[C@](C)(O)CC[C@H]2C(C)(C)C(=O)CC[C@]12C (some centres not stated)
inactive: CCRF-CEM 46.6 µM | OVCAR-8 > 100 µM | Hs-578T > 100 µM | SK-MEL-5 44.4 µM | 786-0 > 100 µM | HOP-92 > 100 µM | EKVX > 100 µM | UO-31 23.9 µM | A498 > 100 µM | SF-539 > 100 µM | SNB-75 > 100 µM | HT-29 47.6 µM | SF-295 81.7 µM | NCI-H522 62.7 µM | NCI-H23 40.6 µM | SK-MEL-28 > 100 µM | UACC-257 64.4 µM

COc1ccc(/N=N/c2c(O)ccc3ccccc23)cc1
inactive: HOP-62 13.8 µM | CCRF-CEM > 100 µM | OVCAR-8 13.2 µM | Hs-578T 11.2 µM | 786-0 61.8 µM | HOP-92 19.6 µM | EKVX 14.3 µM | UO-31 31.3 µM | SNB-75 16.4 µM | BT-549 27.4 µM | HT-29 17 µM | SF-295 12.9 µM | NCI-H522 23 µM | NCI-H23 32.9 µM | SK-MEL-28 > 100 µM | UACC-257 > 100 µM
